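Protocol summary: plate cells (96-well), add compound at 5 concentrations, incubate 48 h, interpolate endpoints linearly. GI50 is the concentration that inhibits growth by half.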 Activity calls are given as the source filed them. Rule as the data show it: active = GI50 up to about 1.1 µM and inactive = higher.
Tests used:
Test in all cases: DTP human tumour cell line panel, 48 h
NCI-H460 = tested on: NCI-H460
SF-268 = tested on: SF-268
LOX IMVI = tested on: LOX IMVI
LXFL 529 = tested on: LXFL 529
TK-10 = tested on: TK-10
U-251 = tested on: U-251
M14 = tested on: M14
SNB-19 = tested on: SNB-19
SK-MEL-5 = tested on: SK-MEL-5
COLO 205 = tested on: COLO 205
SK-MEL-2 = tested on: SK-MEL-2
XF498 = tested on: XF498
IGROV-1 = tested on: IGROV-1
DMS-114 = tested on: DMS-114
HCC 2998 = tested on: HCC 2998
SF-295 = tested on: SF-295
UACC-62 = tested on: UACC-62
HCT-15 = tested on: HCT-15
HCT-116 = tested on: HCT-116
NCI-H226 = tested on: NCI-H226
KM12 = tested on: KM12
SNB-75 = tested on: SNB-75
HT-29 = tested on: HT-29
NCI-H522 = tested on: NCI-H522
RXF 393 = tested on: RXF 393
UACC-257 = tested on: UACC-257
A498 = tested on: A498
786-0 = tested on: 786-0
SN12C = tested on: SN12C
NCI-H23 = tested on: NCI-H23
CAKI-1 = tested on: CAKI-1
SK-MEL-28 = tested on: SK-MEL-28
SW-620 = tested on: SW-620
HOP-62 = tested on: HOP-62
OVCAR-5 = tested on: OVCAR-5
OVCAR-3 = tested on: OVCAR-3
MOLT-4 = tested on: MOLT-4
A549 = tested on: A549
SK-OV-3 = tested on: SK-OV-3
DLD-1 = tested on: DLD-1
M19-MEL = tested on: M19-MEL
CCRF-CEM = tested on: CCRF-CEM
KM-20L2 = tested on: KM-20L2
SNB-78 = tested on: SNB-78
OVCAR-8 = tested on: OVCAR-8
Malme-3M = tested on: Malme-3M
RPMI-8226 = tested on: RPMI-8226
UO-31 = tested on: UO-31
EKVX = tested on: EKVX
DMS-273 = tested on: DMS-273
SF-539 = tested on: SF-539
HL-60 = tested on: HL-60
K562 = tested on: K562
ACHN = tested on: ACHN
OVCAR-4 = tested on: OVCAR-4
SR = tested on: SR
HOP-92 = tested on: HOP-92

COC(=O)[C@@H]1c2[nH]c3ccccc3c2C[C@@H]2c3ccccc3NC(=O)[C@@H]21
GI50 (NCI-H460): > 100 µM (inactive)
GI50 (SF-268): > 31.6 µM (inactive)
GI50 (LOX IMVI): 31 µM (inactive)
GI50 (LXFL 529): > 65.2 µM (inactive)
GI50 (TK-10): > 80.4 µM (inactive)
GI50 (U-251): 15.4 µM (inactive)
GI50 (M14): > 78.5 µM (inactive)
GI50 (SNB-19): > 80.2 µM (inactive)
GI50 (SK-MEL-5): > 54 µM (inactive)
GI50 (COLO 205): > 82.2 µM (inactive)
GI50 (SK-MEL-2): > 62.8 µM (inactive)
GI50 (XF498): > 100 µM (inactive)
GI50 (IGROV-1): > 100 µM (inactive)
GI50 (DMS-114): > 100 µM (inactive)
GI50 (HCC 2998): > 100 µM (inactive)
GI50 (SF-295): 15.7 µM (inactive)
GI50 (UACC-62): > 75.7 µM (inactive)
GI50 (HCT-15): > 100 µM
GI50 (HCT-116): 37.3 µM (inactive)
GI50 (NCI-H226): 18.3 µM (inactive)
GI50 (KM12): > 100 µM (inactive)
GI50 (SNB-75): 12.7 µM (inactive)
GI50 (HT-29): > 100 µM (inactive)
GI50 (NCI-H522): > 100 µM (inactive)
GI50 (RXF 393): 26.2 µM (inactive)
GI50 (UACC-257): > 85.1 µM (inactive)
GI50 (A498): > 100 µM (inactive)
GI50 (786-0): 42.8 µM (inactive)
GI50 (SN12C): > 78.3 µM (inactive)
GI50 (NCI-H23): > 90.8 µM (inactive)
GI50 (CAKI-1): > 73.6 µM (inactive)
GI50 (SK-MEL-28): > 91 µM (inactive)
GI50 (SW-620): > 70.3 µM (inactive)
GI50 (HOP-62): 14.3 µM (inactive)
GI50 (OVCAR-5): > 100 µM (inactive)
GI50 (OVCAR-3): > 53.6 µM (inactive)
GI50 (MOLT-4): > 100 µM (inactive)
GI50 (A549): 38.8 µM (inactive)
GI50 (SK-OV-3): 20.7 µM (inactive)
GI50 (DLD-1): > 100 µM (inactive)
GI50 (M19-MEL): > 89.3 µM (inactive)
GI50 (CCRF-CEM): > 77.6 µM (inactive)
GI50 (KM-20L2): > 100 µM (inactive)
GI50 (SNB-78): > 76.4 µM (inactive)
GI50 (OVCAR-8): 21.3 µM (inactive)
GI50 (Malme-3M): > 46.5 µM (inactive)
GI50 (RPMI-8226): > 49.1 µM (inactive)
GI50 (UO-31): > 100 µM (inactive)
GI50 (EKVX): 53.5 µM (inactive)
GI50 (DMS-273): > 57.5 µM (inactive)
GI50 (SF-539): 43.7 µM (inactive)
GI50 (HL-60): > 100 µM (inactive)
GI50 (K562): > 100 µM (inactive)
GI50 (ACHN): > 100 µM (inactive)

COC1CCCCN1C(=O)c1ccccc1 (stereo not given)
GI50 (SF-268): > 25.3 µM (inactive)
GI50 (LOX IMVI): > 25.3 µM (inactive)
GI50 (TK-10): > 25.3 µM (inactive)
GI50 (U-251): > 25.3 µM (inactive)
GI50 (M14): > 25.3 µM (inactive)
GI50 (SNB-19): > 25.3 µM (inactive)
GI50 (SK-MEL-5): > 25.3 µM (inactive)
GI50 (SK-MEL-2): > 25.3 µM (inactive)
GI50 (IGROV-1): > 25.3 µM (inactive)
GI50 (DMS-114): > 25.3 µM (inactive)
GI50 (HCC 2998): > 25.3 µM (inactive)
GI50 (UACC-62): > 25.3 µM (inactive)
GI50 (HCT-15): > 25.3 µM
GI50 (HCT-116): > 25.3 µM (inactive)
GI50 (NCI-H226): > 25.3 µM (inactive)
GI50 (KM12): > 25.3 µM (inactive)
GI50 (SNB-75): > 25.3 µM (inactive)
GI50 (OVCAR-4): > 25.3 µM (inactive)
GI50 (SR): > 25.3 µM (inactive)
GI50 (RXF 393): > 25.3 µM (inactive)
GI50 (786-0): > 25.3 µM (inactive)
GI50 (SN12C): > 25.3 µM (inactive)
GI50 (NCI-H23): > 25.3 µM (inactive)
GI50 (CAKI-1): > 25.3 µM (inactive)
GI50 (SK-MEL-28): > 25.3 µM (inactive)
GI50 (HOP-92): > 25.3 µM (inactive)
GI50 (SW-620): > 25.3 µM (inactive)
GI50 (OVCAR-5): > 25.3 µM (inactive)
GI50 (OVCAR-3): > 25.3 µM (inactive)
GI50 (MOLT-4): > 25.3 µM (inactive)
GI50 (A549): > 25.3 µM (inactive)
GI50 (SK-OV-3): > 25.3 µM (inactive)
GI50 (KM-20L2): > 25.3 µM (inactive)
GI50 (SNB-78): > 25.3 µM (inactive)
GI50 (Malme-3M): > 25.3 µM (inactive)
GI50 (UO-31): > 25.3 µM (inactive)
GI50 (HL-60): > 25.3 µM (inactive)
GI50 (K562): > 25.3 µM (inactive)
GI50 (ACHN): > 25.3 µM (inactive)

CN1C(=O)CN2C(Cl)(Cl)C2(c2ccccc2)c2cc(Cl)ccc21 (stereo not given)
GI50 (NCI-H460): 96.2 µM (inactive)
GI50 (SF-268): > 100 µM (inactive)
GI50 (LOX IMVI): > 100 µM (inactive)
GI50 (LXFL 529): > 100 µM (inactive)
GI50 (TK-10): > 100 µM (inactive)
GI50 (U-251): > 100 µM (inactive)
GI50 (M14): > 100 µM (inactive)
GI50 (SK-MEL-5): > 100 µM (inactive)
GI50 (COLO 205): > 100 µM (inactive)
GI50 (SK-MEL-2): > 100 µM (inactive)
GI50 (IGROV-1): > 100 µM (inactive)
GI50 (DMS-114): > 100 µM (inactive)
GI50 (HCC 2998): 65.3 µM (inactive)
GI50 (SF-295): 27 µM (inactive)
GI50 (UACC-62): > 100 µM (inactive)
GI50 (HCT-15): > 100 µM
GI50 (HCT-116): 65.3 µM (inactive)
GI50 (NCI-H226): > 100 µM (inactive)
GI50 (KM12): 56.5 µM (inactive)
GI50 (HT-29): 67.5 µM (inactive)
GI50 (NCI-H522): 31.3 µM (inactive)
GI50 (OVCAR-4): > 100 µM (inactive)
GI50 (SR): > 10 µM (inactive)
GI50 (RXF 393): > 100 µM (inactive)
GI50 (UACC-257): 55.1 µM (inactive)
GI50 (SN12C): > 100 µM (inactive)
GI50 (NCI-H23): 89.1 µM (inactive)
GI50 (CAKI-1): > 100 µM (inactive)
GI50 (SK-MEL-28): > 100 µM (inactive)
GI50 (HOP-92): 13.5 µM (inactive)
GI50 (SW-620): > 100 µM (inactive)
GI50 (HOP-62): > 100 µM (inactive)
GI50 (OVCAR-5): > 100 µM (inactive)
GI50 (OVCAR-3): > 100 µM (inactive)
GI50 (MOLT-4): 26.9 µM (inactive)
GI50 (SK-OV-3): > 100 µM (inactive)
GI50 (DLD-1): 93.5 µM (inactive)
GI50 (M19-MEL): > 100 µM (inactive)
GI50 (CCRF-CEM): 53.7 µM (inactive)
GI50 (KM-20L2): > 100 µM (inactive)
GI50 (OVCAR-8): > 100 µM (inactive)
GI50 (Malme-3M): > 100 µM (inactive)
GI50 (RPMI-8226): > 100 µM (inactive)
GI50 (UO-31): > 100 µM (inactive)
GI50 (EKVX): 65.8 µM (inactive)
GI50 (DMS-273): 87.7 µM (inactive)
GI50 (K562): 69.2 µM (inactive)
GI50 (ACHN): > 100 µM (inactive)

C#CC1(O)CCC2C3CCc4cc(Oc5nc(F)nc(-c6c7ccccc7c7sc8ccccc8n67)n5)ccc4C3CC[C@@]21C (stereo not given in full)
GI50 (NCI-H460): > 100 µM (inactive)
GI50 (SF-268): > 100 µM (inactive)
GI50 (LXFL 529): > 100 µM (inactive)
GI50 (TK-10): > 100 µM (inactive)
GI50 (U-251): 75.7 µM (inactive)
GI50 (M14): 26.1 µM (inactive)
GI50 (SNB-19): 36.3 µM (inactive)
GI50 (SK-MEL-5): > 100 µM (inactive)
GI50 (COLO 205): > 100 µM (inactive)
GI50 (SK-MEL-2): > 100 µM (inactive)
GI50 (XF498): > 100 µM (inactive)
GI50 (IGROV-1): > 100 µM (inactive)
GI50 (HCC 2998): > 100 µM (inactive)
GI50 (SF-295): > 100 µM (inactive)
GI50 (UACC-62): > 100 µM (inactive)
GI50 (HCT-15): > 100 µM
GI50 (HCT-116): > 100 µM (inactive)
GI50 (NCI-H226): > 100 µM (inactive)
GI50 (KM12): > 100 µM (inactive)
GI50 (SNB-75): 22.1 µM (inactive)
GI50 (HT-29): > 100 µM (inactive)
GI50 (NCI-H522): 14.4 µM (inactive)
GI50 (OVCAR-4): > 100 µM (inactive)
GI50 (SR): 32.1 µM (inactive)
GI50 (UACC-257): > 100 µM (inactive)
GI50 (786-0): > 100 µM (inactive)
GI50 (NCI-H23): 33.3 µM (inactive)
GI50 (CAKI-1): > 100 µM (inactive)
GI50 (SK-MEL-28): > 100 µM (inactive)
GI50 (HOP-92): > 100 µM (inactive)
GI50 (SW-620): > 100 µM (inactive)
GI50 (HOP-62): > 100 µM (inactive)
GI50 (OVCAR-5): > 100 µM (inactive)
GI50 (OVCAR-3): > 100 µM (inactive)
GI50 (MOLT-4): 42 µM (inactive)
GI50 (A549): > 100 µM (inactive)
GI50 (DLD-1): > 100 µM (inactive)
GI50 (M19-MEL): > 100 µM (inactive)
GI50 (CCRF-CEM): 35.2 µM (inactive)
GI50 (KM-20L2): > 100 µM (inactive)
GI50 (OVCAR-8): > 100 µM (inactive)
GI50 (Malme-3M): > 100 µM (inactive)
GI50 (RPMI-8226): > 100 µM (inactive)
GI50 (UO-31): > 100 µM (inactive)
GI50 (DMS-273): 75.5 µM (inactive)
GI50 (SF-539): > 100 µM (inactive)
GI50 (HL-60): > 100 µM (inactive)
GI50 (K562): > 100 µM (inactive)
GI50 (ACHN): > 100 µM (inactive)
